Reference: article PMC5300155, “Biochemical and biophysical investigations of the interaction between human glucokinase and pro-apoptotic BAD” (PLoS ONE, 2017)
Entries after “also recorded” stand apart in the source; their conditions may differ.

T1: GCK (Homo sapiens, UniProt P35557)
T1 construct: hexahistidine (N); made in house; host or cells: glucokinase auxotroph BM5340(DE3)
T1 sequence (P35557 1-465): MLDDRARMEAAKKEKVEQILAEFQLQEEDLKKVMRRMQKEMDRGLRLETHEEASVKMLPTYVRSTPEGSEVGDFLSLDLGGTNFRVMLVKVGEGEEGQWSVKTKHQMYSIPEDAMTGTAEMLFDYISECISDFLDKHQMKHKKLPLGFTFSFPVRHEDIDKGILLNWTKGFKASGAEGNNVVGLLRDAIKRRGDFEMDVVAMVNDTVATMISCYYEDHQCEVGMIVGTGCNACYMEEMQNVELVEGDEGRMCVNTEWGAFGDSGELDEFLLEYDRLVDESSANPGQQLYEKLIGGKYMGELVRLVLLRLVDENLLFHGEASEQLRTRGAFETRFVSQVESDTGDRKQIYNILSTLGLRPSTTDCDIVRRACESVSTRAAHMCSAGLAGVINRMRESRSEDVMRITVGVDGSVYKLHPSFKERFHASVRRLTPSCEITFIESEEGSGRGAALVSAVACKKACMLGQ

T2: human pancreatic GCK (Homo sapiens, UniProt P35557)
T2 construct: hexahistidine (N); made in house; host or cells: glucokinase auxotroph BM5340(DE3)
T2 sequence (P35557 1-465): T1 sequence (P35557 1-465)

B1: BAD-GST: recombinant human BAD with N-terminal hexahistidine tag and C-terminal GST fusion, TEV consensus sequence between (protein)
chain: MFQIPEFEPSEQEDSSSAERGLGPSPAGDGPSGSGKHHRQAPGLLWDASHQQEQPTSSSHHGGAGAVEIRSRHSSYPAGTEDDEGMGEEPSPFRGRSRSAPPNLWAAQRYGRELRRMSDEFVDSFKKGLPRPKSAGTATQMRQSSSWTRVFQSWWDRNLGRGSSAPSQ
modifications: left off: His6, N-terminal, state not stated | GST, C-terminal, kept

Tests used:
[1] = target: T1, GCK; assay: GCK activity, microplate G6PDH-linked assay as described by Szlyk et al. (37°C); format: biochemical; details: GCK 7.5 nM; for Effect on GCK Vmax: either assay (routine and Szlyk microplate), peptide 5 μM, 37°C in microplate assay
Experimental: Steady state kinetics were also performed as described by Szlyk, et al.[13]. Briefly, G6PDH-linked assays were performed in clear 96-well plates at 37°C with a SpectraMax M5 microplate reader (Molecular Devices) recording absorbance at 340 nm every 30 s. Reaction mixtures contained GCK (7.5 nM), HEPES (100 mM, pH 7.4), KCl (150 mM), MgCl2(6 mM), DTT (1 mM), NAD (1 mM), BSA (0.05%), G6PDH (2.5 U), glucose (0.5–100 mM), and ATP (5 mM) in the presence or absence of BAD-GST S118D variant (5 μM) or phosphorylated BAD BH3 peptide (5 μM) in a final volume of 100 μL.
GCK (7.5 nM) was assayed in the presence of A. S118D BADGST (5 μM) or B. pBH3 (5 μM) in a 96 well plate using a microplate reader. Buffer conditions were as follows: Ref [13]: 100 mM Hepes, pH 7.4; 150 mM KCl; 1 mM NAD+; 0.05% BSA; 6 mM MgCl2; 1 mM DTT; 2.5 U G6PDH; 5 mM ATP. Optimal GCK conditions: 100 mM Hepes, pH 7.4; 150 mM KCl; 1 mM NADP+; 6 mM MgCl2; 10 mM DTT; 1.5 U G6PDH; 5 mM ATP. (EPS) Click here for additional data file.

[2] = target: T2, human pancreatic GCK; assay: Size-exclusion chromatography of mixtures with GCK; format: binding; details: mixtures across a range of protein concentrations; BAD buffer pH 8.5, 4°C
Experimental: Size-exclusion chromatography was performed on a HiPrep 16/60 Sephacryl S-200 HR column (GE Healthcare) connected to a Bio-Rad DuoFlow FPLC. The column was calibrated with thyroglobulin (669 kDa), γ-globulin (158 kDa), ovalbumin (43 kDa), myoglobin (17 kDa), and vitamin B12 (1.35 kDa). All proteins were analyzed in BAD buffer (0.1 M Tris, 0.1 M KCl, 0.5 M arginine, 2.5 mM CHAPS, 5 mM TCEP, 10% glycerol, pH 8.5) at a flow rate of 0.02 mL/min at 4°C. Protein samples were concentrated to 800 μL and filtered through 0.2 μm filters before injection onto the size-exclusion column. For complex formation, equimolar mixtures of proteins were added to BAD buffer in a final volume of 800 μL and incubated on ice 30 min prior to injection onto the column.

[3] = target: T2, human pancreatic GCK; assay: Analytical ultracentrifugation sedimentation velocity of equimolar mixtures with GCK; format: binding; details: equimolar mixture, BAD buffer pH 8.5, 20°C, 50,000 x g
Experimental: (§1) Sedimentation velocity experiments were conducted with an Optima XLI Ultracentrifuge (Beckman Coulter) using a four-hole rotor with three 420 μL samples in standard double-sector Epon centerpieces equipped with sapphire windows. Absorbance and interference data were collected simultaneously. Size-exclusion purified proteins were concentrated to OD280 nm = 0.3–1.0 prior to centrifugation. For complex formation, proteins were mixed in a 1:1 molar ratio in BAD buffer (0.1 M Tris, 0.1 M KCl, 0.5 M arginine, 2.5 mM CHAPS, 5 mM TCEP, 10% glycerol, pH 8.5) and incubated on ice 30 min prior to the start of the experiment. Experiments were carried out at 20°C and 50,000 x g. Data were analyzed with Ultrascan III software using a minimum of 70 scans per sample for analysis. Van Holde-Weischet analysis was performed to obtain S20,W values.

[4] = target: T3, Bcl-xL (Homo sapiens, UniProt Q07817, DEL45-84); assay: Analytical ultracentrifugation sedimentation velocity of 1:1 mixture BAD-GST and Bcl-xL; format: binding; details: 1:1 mixture of BAD-GST and Bcl-xL, 20°C, 50,000 x g, BAD buffer pH 8.5
T3 construct: made in house
Experimental: as §1

T3 sequence (Q07817 with tags, fused parts or gaps DEL45-84): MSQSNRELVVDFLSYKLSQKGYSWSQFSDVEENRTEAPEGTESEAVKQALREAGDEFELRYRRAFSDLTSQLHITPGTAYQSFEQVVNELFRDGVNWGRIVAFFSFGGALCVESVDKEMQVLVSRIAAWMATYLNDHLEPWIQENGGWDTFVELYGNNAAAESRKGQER

Row | Sedimentation coefficient [4] | Molecule | Effect on GCK kinetics under Szlyk et al. buffer conditions ([1]; S118D BADGST 5 μM, or pBH3 5 μM, 96 well plate, S2 Fig) | Effect on GCK Vmax ([1]; listed as phosphorylated BAD BH3 peptide) | Effect on GCK Vmax ([1]; listed as phosphorylated BH3 peptide) | Complex with GCK by size-exclusion chromatography [2] | Complex with GCK by analytical ultracentrifugation [3]
1 | – | NLWAAQRYGRELRRM(p)SDKFVD [pBH3, 21-residue phosphorylated peptide containing the BH3 domain of BAD] | did not increase BAD’s effects on GCK kinetics | no statistically significant difference in the GCK Vmax value | lack of an increase in the GCK Vmax value | – | –
2 | 2.1 | B1 | – | – | – | No evidence of a higher molecular weight complex is observed; also recorded: provides no evidence of complex formation | does not reveal a higher molecular weight component indicative of complex formation
